US20090318565A1, “Novel Compositions for the Enhancement of the Anti-oxidant Potential of Hydrogenated Curcuminoids or Combinations Thereof” (priority 2008, published 2009)
In brackets after ≈: the same amount, converted by molar mass.

Key:
[1] = system: Swiss 3T3 mouse fibroblast cells; test: ROS scavenging assay (DCFH-DA dye, oxidation initiated by FeSO4); type: cell-based; conditions: for IC50: Mus musculus, Swiss-3T3, DCFH-DA, FeSO4, 1 hr at 37° C., fluorescence 485/520 nm, called SC50, read-out: % Inhibition (IC50 μg/ml) ROS scavenging in Swiss 3T3 fibroblast cell line
Method: The DPPH free radical scavenging activity is studied based on the stable free radical 1,1-diphenyl-2-picryl hydrazyl radical (DPPH) which, in presence of an antioxidant in organic/aqueous organic media is bleached and the decrease of absorbance of DPPH is measured spectrophotometrically at 516 nm. The assay mixture containing DPPH methanolic solution & methanolic solutions of various concentrations of the antioxidant is incubated at 37 degree C. for 30 minutes. The reduction in absorbance is measured spectrophotometrically at 516 nm. The free radical scavenging activity is expressed as SC50, the concentration of the sample required for 50% of the free radical to be scavenged. The ROS scavenging assay is based on a cell permeable, non-fluorescent dye, de-esterified DCFH-DA (dichloro fluorescein diacetate) being converted to dichlorofluorescein upon oxidation by the reactive oxygen species. […] Swiss 3T3 mouse fibroblast cells are cultured in DMEM medium with 10% FBS. 1×10^5 cells per well are plated into a 96 well black plate. After treatment with varying concentrations of the samples, the cells are exposed to DCFH-DA dye and oxidation initiated by FeSO4. […] The fluorescence intensity is directly proportional to the ROS scavenging activity of the samples. The activity is expressed as SC50 which is the concentration required for 50% scavenging of ROS.

[2] = DPPH free radical scavenging assay; type: biochemical; conditions: methanolic solution, 37 degree C. for 30 minutes, absorbance at 516 nm; called SC50
Method: The DPPH free radical scavenging activity is studied based on the stable free radical 1,1-diphenyl-2-picryl hydrazyl radical (DPPH) which, in presence of an antioxidant in organic/aqueous organic media is bleached and the decrease of absorbance of DPPH is measured spectrophotometrically at 516 nm. The assay mixture containing DPPH methanolic solution & methanolic solutions of various concentrations of the antioxidant is incubated at 37 degree C. for 30 minutes. The reduction in absorbance is measured spectrophotometrically at 516 nm. The free radical scavenging activity is expressed as SC50, the concentration of the sample required for 50% of the free radical to be scavenged. The ROS scavenging assay is based on a cell permeable, non-fluorescent dye, de-esterified DCFH-DA (dichloro fluorescein diacetate) being converted to dichlorofluorescein upon oxidation by the reactive oxygen species. The scavenging activity of sample is indicated by the decrease in fluorescence (wavelength 485/520 nm). Swiss 3T3 mouse fibroblast cells are cultured in DMEM medium with 10% FBS. […] After incubation for 1 hr at 37° C., the fluorescence reading is taken at wavelength 485/520 nm (Fluostar optima microplate reader). The fluorescence intensity is directly proportional to the ROS scavenging activity of the samples. The activity is expressed as SC50 which is the concentration required for 50% scavenging of ROS.

Row | SMILES | pro-oxidant properties of hydrogenated derivative against bisdemethoxycurcumin ([1]; upon hydrogenation) | IC50 [1] | anti-oxidant activity of hydrogenated derivative against curcumin ([1]; upon hydrogenation) | SC50 [2] | enhancement of anti-oxidant properties upon hydrogenation (ROS scavenging activity) ([1]; hydrogenated derivative against demethoxycurcumin)
1 | O=C(CCc1ccc(O)cc1)CC(=O)CCc1ccc(O)cc1 [STR#1, 1,7-Bis(4-hydroxyphenyl)-3,5-heptanedione] | enhanced | – | – | – | –
2 | COc1cc(CCC(=O)CC(=O)CCc2ccc(O)c(OC)c2)ccc1O [STR#II, 1,7-Bis(4-hydroxy-3-methoxyphenyl)-3,5-heptanedione] | – | 1.35 µg/mL (≈ 3.62 µM) | enhanced | – | –
3 | COc1cc(CCC(=O)CC(=O)CCc2ccc(O)cc2)ccc1O [STR#V, 1-(4-hydroxy-3-methoxyphenyl)-7-(4-hydroxyphenyl)-3,5-heptanedione] | – | 4.5 µg/mL (≈ 13.1 µM) | – | 3.0 µg/mL | about 10 fold
